Source: patent US4794079A, “Determination of hydrogen peroxide using fluorogenic dihydroquinolone and dihydrocoumarin indicators” (Miles Inc., priority 1985, dated 1988)

Target: T1, horseradish peroxidase (Armoracia rusticana, UniProt P00433)
T1 sequence (P00433 31-353): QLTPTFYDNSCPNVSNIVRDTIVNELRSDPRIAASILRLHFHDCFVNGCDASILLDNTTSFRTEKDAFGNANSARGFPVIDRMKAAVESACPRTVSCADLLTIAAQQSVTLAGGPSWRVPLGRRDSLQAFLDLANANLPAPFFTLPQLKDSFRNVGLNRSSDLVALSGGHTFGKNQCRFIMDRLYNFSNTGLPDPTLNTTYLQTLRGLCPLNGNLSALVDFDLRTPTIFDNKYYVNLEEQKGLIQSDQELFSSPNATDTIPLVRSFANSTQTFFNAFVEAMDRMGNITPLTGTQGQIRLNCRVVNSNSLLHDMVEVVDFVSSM
Assay: Detection of hydrogen peroxide: fluorescence of indicator compounds after adding horseradish peroxidase and hydrogen peroxide
Format: biochemical
Conditions: 1.0 μM compound; for Relative Fluorescence of Indicator Compounds, Fluorescence Units, 0 secs: sodium phosphate buffer pH 7.0 or 7.5, 37° C., nM of fluorescent standard 7-hydroxy-3-(N-ethylcarboxamido)coumarin giving the same light output
Procedure: A 1.0 μM, pH 7.0 or 7.5, sodium phosphate buffer solution of the dihydroquinolones and dihydrocoumarins listed in the Table below were prepared by successive dilutions with the buffer of an ethanol or DMF-ethanol solution of the appropriate compound. The solution was warmed in a 37° C. bath, then a 40 microliter (μL) of 1 mg/mL horseradish peroxidase enzyme was added in one portion. The contents of the cuvette were mixed and the fluorescence was monitored for at least 50 seconds (the quartz cell and its contents were held at a constant 37° C.). A quantity of hydrogen peroxide diluted in cold water and stored at 0° for less than eight hours was then added in an amount suitable for the desired ratio of dihydroquinolone to peroxide. The fluorescence was then monitored over a 600 second time span. Fluorescent values for compounds (5), (6), (7), (11), (16), and (17) were reported in units of concentration (nM) of the flourescent standard 7 -hydroxy-3-(N-ethylcarboxamido) coumarin (U.S. Pat. No. 4,273,715) which would be required to achieve the same fluorescence light output as the subject of study. Compound (8) is reported in photons/second. All slit widths were set at 2 nm (nanometers).
Fluorescence was measured in quartz cuvettes on an SLM 8000 spectrofluorometer (SLM Instruments, Inc. Urbana, Ill.). A Hewlett-Packard8915A computer was used to process spectra.

[1] = 25 secs, pH 7.0 or 7.5, 37° C., nM of fluorescent standard equivalent
[2] = 100 secs, pH 7.0 or 7.5, 37° C., nM of fluorescent standard equivalent
[3] = 200 secs, pH 7.0 or 7.5, 37° C., nM of fluorescent standard equivalent
[4] = 600 secs, pH 7.0 or 7.5, 37° C., nM of fluorescent standard equivalent

Row | Structure (SMILES) | Relative Fluorescence of Indicator Compounds, Fluorescence Units, 0 secs (0 secs) [nM] | Relative Fluorescence of Indicator Compounds, Fluorescence Units, 25 secs [1] [nM] | Relative Fluorescence of Indicator Compounds, Fluorescence Units, 100 secs [2] [nM] | Relative Fluorescence of Indicator Compounds, Fluorescence Units, 200 secs [3] [nM] | Relative Fluorescence of Indicator Compounds, Fluorescence Units, 600 secs [4] [nM] | Fluorescence Units, 0 secs (0 secs, pH 7.0 or 7.5, 37° C., excitation 400 nm, emission 450 nm) [photons/second] | Fluorescence Units, 25 secs (25 secs, pH 7.0 or 7.5, 37° C., excitation 400 nm, emission 450 nm) | Fluorescence Units, 50 secs (50 secs, pH 7.0 or 7.5, 37° C., excitation 400 nm, emission 450 nm) | Fluorescence Units, 100 secs (100 secs, pH 7.0 or 7.5, 37° C., excitation 400 nm, emission 450 nm) | Fluorescence Units, 200 secs (200 secs, pH 7.0 or 7.5, 37° C., excitation 400 nm, emission 450 nm) | Fluorescence Units, 600 secs (600 secs, pH 7.0 or 7.5, 37° C., excitation 400 nm, emission 450 nm) | Relative Fluorescence of Indicator Compounds, Fluorescence Units, 50 secs (50 secs, pH 7.0 or 7.5, 37° C., nM of fluorescent standard equivalent) [nM]
1 | CCOC(=O)C1Cc2ccc(N(C)C)cc2NC1=O (stereo not shown) [Compound 5, 7-Dimethylamino-3-carbethoxy-3,4-dihydro-2-quinolone] | 1.4 | 81.5 | 101.5 | 101.5 | 101.25 |  |  |  |  |  |  | 
2 | CN(C)c1ccc2c(c1)NC(=O)C(C(=O)[O-])C2.[K+] (stereo not shown) [Compound 7, 7-Dimethylamino-3-carboxy-3,4-dihydro-2-quinolone potassium salt] | 1.4 | 12.3 | 22.2 | 24.3 | 24.6 |  |  |  |  |  |  | 
3 | CCOC(=O)C1Cc2ccc(O)cc2N(C)C1=O (stereo not shown) [Compound 16, 7-Hydroxy-3-carbethoxy-3,4-dihydro-1-methyl-2-quinolone] | 1.3 | 4.3 | 5.7 | 6.3 | 6.3 |  |  |  |  |  |  | 
4 | CCNC(=O)C1Cc2ccc(N(C)C)cc2N(C)C1=O (stereo not shown) [Compound 11, 7-Dimethylamino-3-(N-ethylcarboxamido)-3,4-dihydro-1-methyl-2-quinolone] | 4.3 | 8.9 | 101.5 | 133.5 | 142.5 |  |  |  |  |  |  | 
5 | CCNC(=O)C1Cc2ccc(N(C)C)cc2NC1=O (stereo not shown) [Compound 8, 7-Dimethylamino-3-(N-ethylcarboxamido)-3,4-dihydro-2-quinolone] |  |  |  |  |  | < 428 | 20,142 photons/second | 27,000 photons/second | 29,000 photons/second | 30,000 photons/second | 30,000 photons/second | 
6 | CCOC(=O)C1Cc2cc3c4c(c2OC1=O)CCCN4CCC3 (stereo not shown) [Compound 17, [2,3,6,7,9,10]-Hexahydro-10-carbethoxy-11-oxo-1H,5H,11H-[1]benzopyran[6,7,8-ij]quinolizine] | 0.6 | 8.8 | 13.0 | 25.9 | 42.5 |  |  |  |  |  |  | 
7 | CCOC(=O)C1Cc2ccc(NC)cc2NC1=O (stereo not shown) [Compound 6, 7-Methylamino-3-carbethoxy-3,4-dihydro-2-quinolone] | < 0.12 | 4.0 | 11.0 | 11.25 | 10.8 |  |  |  |  |  |  | 8.75
